This note sets out measurements from patent US11040028B2, “Penicinotam derivative, preparation method and use thereof” (OCEAN UNIVERSITY OF CHINA, priority 2017, dated 2021).

Type in all cases: cell-based
For one assay, the system named is BHK-21 cells. Put plainly: Anti-fibrosis activity test: inhibition of BHK-21 cell proliferation (CCK-8). As to conditions: Mesocricetus auratus, BHK-21, 48 h, 48 h, CCK-8. In a few lines: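 Proliferation of BHK-21 cells is measured by CCK-8 at 450 nm following 48 h compound exposure at several concentrations. Inhibition is expressed relative to blank control and IC50 is computed from it.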

Assay [1] concerns human lung fibroblasts HFL1. Put plainly: Anti-fibrosis activity test: inhibition of proliferation of human lung fibroblasts HFL1 (CCK-8). The following applies: Homo sapiens, HFL1, 48 h, HFL1 cells, 48 h, CCK-8. Summed up:
(§1)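 Cells were seeded at 2×10^4 cells/mL and allowed to adhere for 24 h at 37° C, 5% CO2, then exposed to graded compound concentrations in triplicate for 48 h. CCK-8 was added for 2 h, A450 was read, and IC50 was derived from inhibition rate = (1−Ai/Ao)×100%.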

Assay [2] concerns human hepatic stellate cells LX-2. Put plainly: Anti-fibrosis activity test: inhibition of proliferation of human hepatic stellate cells LX-2 (CCK-8). As to conditions: Homo sapiens, LX-2, 48 h, LX-2 cells, 48 h, CCK-8. Summed up: as §1
The test system of assay [3] is human fibrosarcoma cells HT-1080. As to the kind of experiment: Anti-fibrosis activity test: inhibition of proliferation of human fibrosarcoma cells HT-1080 (CCK-8). As to conditions: Homo sapiens, HT-1080, 48 h, HT-1080 cells, 48 h, CCK-8. Summed up: as §1
For assay [4], the system named is human dermal fibroblasts CCC-ESF-1. Put plainly: Anti-fibrosis activity test: inhibition of proliferation of human dermal fibroblasts CCC-ESF-1 (CCK-8). As to conditions: Homo sapiens, Fibroblast; CCC-ESF-1 cells, 48 h, CCK-8. Summed up:
as §1

Assay [5] relates to human embryonic lung fibroblast IMR-90. As to the kind of experiment: Anti-fibrosis activity test: inhibition of proliferation of human embryonic lung fibroblast IMR-90 (CCK-8). As to conditions: Homo sapiens; IMR-90 cells, 48 h, CCK-8. Summed up: as §1
Assay [6] concerns cardiac fibroblast RAT-iCell-C002. As to the kind of experiment: Anti-fibrosis activity test: inhibition of proliferation of cardiac fibroblast RAT-iCell-C002 (CCK-8). The following applies: Cardiac fibroblast, 48 h, RAT-iCell-C002 cells, CCK-8. Summed up: as §1
In a further assay the test system is NF-κB. Put plainly: Immunological activity test: inhibition of NF-κB activity. The following applies: initial concentration of 30 μM; a/b isomers given as first/second symbol; read-out: IC50 (μM), inhibitory activity against NF-κB. In a few lines: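 Single-point testing at 30 μM preceded IC50 determination.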
The test system of assay [7] is mouse macrophages (RAW264.7). Put plainly: Lipopolysaccharide-induced NO secretion in macrophages (Griess). As to conditions: Mus musculus, RAW264.7, 24 h, RAW264.7, LPS 1 μg/ml, a/b isomers given as first/second symbol, read-out: IC50 (μM), inhibition of lipopolysaccharide-induced NO secretion in macrophages. In a few lines: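 RAW264.7 cells in DMEM with 10% FBS were treated with test compounds at several concentrations, then stimulated with LPS (1 μg/ml) for 24 hours. Nitrite in the supernatant was measured by Griess reaction at 548 nm, and percent inhibition was calculated against blank-medium controls.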

The structures appear in SMILES notation. Some results are limits rather than exact numbers.

Consider `Cc1cc(C)c2c(=O)c3c([nH]c2c1)-c1cccn1C3=O` [Compound 768a, 6,8-Dimethyl-9H-pyrrolizino[1,2-b]quinoline-9,10(4H)-dione], for which the IC50 (in the assay with BHK-21 cells; in [1]; in assay [2]; in assay [3]; in assay [4]; in assay [5]) was 0.05 to 5 mM in each case. For the same compound, the 50% inhibitory concentration (IC50) (in general, the concentration needed to halve the response being measured) lay within 0.05 to 5 mM in assay [6], 0.1 to 1 µM in the assay on NF-κB and 1 to 10 µM in assay [7].

As to `Cc1cc(C)c2c(O)c3c(nc2c1)-c1cccn1C3=O` [Compound 768b, 9-hydroxy-6,8-dimethyl-10H-pyrrolizino[1,2-b]quinolin-10-one], the IC50 (in the assay on BHK-21 cells; in assay [1]; in [2]; in [3]; in assay [4]; in assay [5]) was 0.05 to 5 mM each time. Also, the IC50 in [6] fell in the range of 0.05 to 5 mM; with NF-κB, 1 to 10 µM; in assay [7], 1 to 10 µM.

For the compound `Cc1ccc(C)c2c(=O)c3c([nH]c12)-c1cccn1C3=O` [Compound 772a, 5,8-Dimethyl-9H-pyrrolizino[1,2-b]quinoline-9,10(4H)-dione], the IC50 with BHK-21 cells is less than 0.05 mM; in [1], 0.05 to 5 mM; in assay [2], 0.05 to 5 mM; in assay [3], 0.05 to 5 mM; in [4] it was 0.05 to 5 mM; in assay [5], 0.05 to 5 mM. Also, the figures for the IC50 (in assay [6]; in the assay on NF-κB; in assay [7]) were 0.05 to 5 mM, 1 to 10 µM and 1 to 10 µM, respectively.

As to `Cc1ccc(C)c2c(O)c3c(nc12)-c1cccn1C3=O` [Compound 772b, 9-hydroxy-5,8-dimethyl-10H-pyrrolizino[1,2-b]quinolin-10-one], the IC50 (with BHK-21 cells; in assay [1]; in assay [2]; in assay [3]; in assay [4]; in [5]) was 0.05 to 5 mM throughout. Also, the IC50 in [6] was 0.05 to 5 mM; with NF-κB, 0.1 to 1 µM; in assay [7], 1 to 10 µM.

Consider `Cc1cccc2[nH]c3c(c(=O)c12)-c1cccn1C3=O` [Compound 776a, 10-Methyl-5H-pyrrolizino[2,1-b]quinoline-5,11(6H)-dione], for which the IC50 in the assay with BHK-21 cells was less than 0.05 mM; in assay [1], 0.05 to 5 mM; in assay [2], 0.05 to 5 mM; in [3], 0.05 to 5 mM; in assay [4] it was 0.05 to 5 mM; in assay [5], 0.05 to 5 mM. Besides, the figures for the IC50 (in assay [6]; with NF-κB; in assay [7]) were 0.05 to 5 mM, 1 to 10 µM and 10 to 50 µM, respectively.

For `Cc1cccc2nc3c(c(O)c12)-c1cccn1C3=O` [Compound 776b, 11-hydroxy-10-methyl-5H-pyrrolizino[2,1-b]quinolin-5-one], the IC50 (in the assay with BHK-21 cells; in assay [1]; in [2]; in assay [3]; in [4]; in assay [5]) was 0.05 to 5 mM throughout. For the same compound, the 50% inhibitory concentration (IC50) lay in the range of 0.05 to 5 mM in assay [6], 0.1 to 1 µM in the assay with NF-κB and 1 to 10 µM in [7].

Take `O=C1c2c(c(=O)c3ccccc3n2CCCN2CCOCC2)-c2cccn21` [Compound 787a, 6-(3-Morpholinopropyl)-5H-pyrrolizino[2,1-b]quinoline-5,11(6H)-dione]: the concentration for half-maximal inhibition (IC50) (with BHK-21 cells; in assay [1]; in assay [2]; in assay [3]; in assay [4]; in [5]) was 0.05 to 5 mM in each case. Besides, the values for the IC50 (in assay [6]; in the assay on NF-κB; in assay [7]) were 0.05 to 5 mM, 1 to 10 µM and 10 to 50 µM, respectively.

For `O=C1c2nc3ccccc3c(OCCCN3CCOCC3)c2-c2cccn21` [Compound 787b, 11-(3-morpholinopropoxy)-5H-pyrrolizino[2,1-b]quinolin-5-one], the 50% inhibitory concentration (IC50) (in the assay with BHK-21 cells; in [1]; in [2]; in assay [3]; in assay [4]; in assay [5]) was 0.05 to 5 mM each time. Also, the IC50 in assay [6] lay within 0.05 to 5 mM; in the assay with NF-κB, 0.1 to 1 µM; in assay [7], 10 to 50 µM.
